{"source": "paper PMC11532980", "about": "“Solvation free energy in governing equations for DNA hybridization, protein–ligand binding, and protein folding” (FEBS Open Bio, 2024)", "biological_target": "T1, ribonuclease A (RNase A) (Bos taurus, UniProt P61823)", "T1 construct": "gene RNASE1; native enzyme from bovine pancreas, commercial; mature secreted protein (signal peptide removed), no tag", "T1 sequence (P61823 27-150)": "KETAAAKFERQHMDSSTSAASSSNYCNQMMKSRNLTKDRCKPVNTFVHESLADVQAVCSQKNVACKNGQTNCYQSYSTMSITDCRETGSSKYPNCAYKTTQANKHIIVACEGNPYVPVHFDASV", "assay": "isothermal titration calorimetry", "assay_type": "binding", "conditions": "25 mM Bis-Tris, 25 mM KCl, pH 6.0, 25 °C; K per RNase A concentration (five concentrations, up to 0.6 mM); ligand from disodium salt; y-intercept of −RTlnK versus complex concentration (extrapolated t)"}
{"compound": "O=c1ccn([C@@H]2O[C@H](CO)[C@@H](OP(=O)(O)O)[C@H]2O)c(=O)[nH]1", "note": "[3′‐UMP]", "values": [{"measurement": "ΔG°", "result": "-6.46 ± 0.03", "unit": "kcal/mol"}]}
